System: mice
Assay: Ovalbumin (OVA)-induced asthma-like allergic lung inflammation
Type: in vivo, mouse
Method: Glucocorticoids have been (Pearlman et al., 1997. Ann Allergy Asthma Immunol. 78(4):356-62), and are still, widely used in asthma therapy. In order to investigate the possible CpdX anti-inflammatory activity in vivo, mice were sensitized and challenged with either ovalbumin (OVA) or house dust mite (HDM) to induce an asthma-like allergic lung inflammation.
Mice were intraperitoneally sensitized with either 50 μg OVA together with alum or with alum alone on D0, D7 and D14. Mice were then subdivided into three groups, and on D19, D20 and D21, they were intranasally (i.n.) challenged with 10 μg OVA. The first and the second group received intranasally 0.5 mg/kg of body weight of Dex or CpdX respectively, while the third group served as a control.
On D22, the lung allergic inflammation was assessed for each mouse by examination of the bronchoalveolar lavage fluid (BAL). The total BAL cells, eosinophils, neutrophils, macrophages and lymphocytes were counted. RNA transcripts were extracted from lung samples and RNA transcripts of IL-1β, IL-6, IL-4, IL-5, IL-10, IL-13, Eotaxin, CCL4 and TNFα were analyzed by q-RT-PCR. Histological (with H&E staining) and immunohistochemical (with eosinophil-specific and neutrophil-specific antibodies) analyses of lung tissues were also carried out.

COc1ccc(F)cc1C(C)(C)CC(O)(CNc1ccc2c(c1)COC2=O)C(F)(F)F (racemic) [CpdX, 5-[4-(5-fluoro-2-methoxyphenyl)-2-hydroxy-4-methyl-2-(trifluoromethyl)pentylamino]-isobenzofuran-1(3H)-one]
eosinophils and neutrophils in lung, immunohistochemistry (data not shown): similarly decreased
peribronchiolar and perivascular inflammatory cell infiltration (histology of lung paraffin sections): strongly decreased
number of macrophages in BAL (intranasal 0.5 mg/kg on D19-D21, BAL on D22): unchanged
total number of BAL cells, eosinophils, neutrophils and lymphocytes (intranasal 0.5 mg/kg on D19-D21, BAL on D22, vs control group): significantly decreased
expressions of IL-1β, IL-6, IL-4, IL-5, IL-10, IL-13, Eotaxin, CCL4 and TNFα in lung samples (q-RT-PCR, D22): significantly and similarly decreased

From patent publication US20190151283A1, “NON-STEROIDAL SELECTIVE GLUCOCORTICOID RECEPTOR AGONISTIC MODULATORS (SEGRAMs) AND USES THEREOF” (ASSOCIATION POUR LA RECHERCHE À L'IGBMC (ARI), priority 2017, published 2019)
